We go through three compounds from US20200025762A1, “NON-TARGET SITE RESISTANCE” (UNIVERSITY OF NEWCASTLE UPON TYNE, priority 2017, published 2020).

The subject of experiment [1] is Pendimethalin population (ROTH PEND 14) of black-grass. As to the kind of experiment: Cross resistance test of the Pendimethalin selected line. Format: in vivo, Alopecurus myosuroides. Conditions: full or ¾ field rate; FIG. 18; not due to TSR (PCR of ACCases). The text has this: (§1) However, given that the two populations have no known relationship to the HS population, some of these differences could have arisen due to background genetic variation not linked to herbicide resistance. To test this, the inventors extended the proteomic comparison to two additional populations originating from the HS Rothamsted population that had undergone 5-7 years of experimentally controlled selection under a single herbicide regime, either Fenoxaprop or Pendimethalin (Supplementary Methods S1). These herbicides were used because whereas resistance to fenoxaprop can arise through both TSR- and NTSR-based mechanisms (Cocker et al., 1999), evolved tolerance to pendimethalin in black-grass is most commonly associated with enhanced detoxification (James et al., 1995). The inventors then tested these populations for cross-resistance to other herbicides at either full or ¾ field rate (Supplementary Methods S2). Despite being selected under exposure to a single herbicidal mode of action (inhibition of microtubule assembly), the Pendimethalin population was also resistant against several herbicides with ACCase mode of action (fenoxaprop, clodinafop, cycloxidim), but not ALS or cell division MOA (FIG. 18). PCR of the respective ACCases in the selected population (Marshall et al., 2013), confirmed that resistance was not due to TSR-related mechanisms.
A black-grass population originating from Rothamsted Broadbalk experimental grounds (guaranteed herbicide free) was used as the standard Herbicide Susceptible (HS) population, collected in 2009. This was used as a standard control for two “real” NTSR populations originating from wheat field sites in Essex (Peldon) and Oxford and two experimental NTSR populations that had undergone directed selection to two types of herbicidal active ingredients (Fenoxaprop and Pendimethalin). Both experimental populations originated from the Rothamsted HS population in 2004. Further details on the selection regime to create the distinct Fenoxaprop and Pendimethalin resistant populations are provided in Supplementary Methods S1/S2. […]

Experiment [2] relates to Fenoxaprop population (ROTH FEN OUT) of black-grass. As to the kind of experiment: Cross resistance test of the Fenoxaprop selected line. Type of experiment: in vivo, Alopecurus myosuroides. Conditions: full or ¾ field rate; FIG. 18; no evidence of TSR.
Description: as §1, with “mechanisms. […]” for “mechanisms.”

As to `C#CCOC(=O)[C@@H](C)Oc1ccc(Oc2ncc(Cl)cc2F)cc1`, the “herbicide resistance of the Pendimethalin population” value in experiment [1] is recorded as “resistant”. With `CCCC(=NOCC)C1=C(O)CC(C2CCCSC2)CC1=O` (stereo not shown) [cycloxidim], in experiment [1], the “herbicide resistance of the Pendimethalin population” value is on record as “resistant”. For the compound `CC(Oc1ccc(Oc2nc3ccc(Cl)cc3o2)cc1)C(=O)O` (stereo not shown) [fenoxaprop], the “herbicide resistance of the population selected with fenoxaprop” value in experiment [2] is “only resistant toward the selecting herbicide”. In experiment [1], the “herbicide resistance of the Pendimethalin population” value is “resistant”.
